Measured values from ChEMBL document CHEMBL4376824, “Anti-Lymphangiogenic Alkaloids from the Zoanthid Zoanthus vietnamensis Collected in Taiwan” (J Nat Prod, 2019).
Calls of active or inactive are those of the source. The rule behind the calls is not given here.

Legend:
[1] = Anti-lymphangiogenic activity in HDLEC assessed as cell growth at 50 ug/ml incubated for 48 hrs by SRB staining based assay relative to control; format: functional; details: Homo sapiens, read-out: Activity
[2] = Anti-lymphangiogenic activity in HDLEC assessed as cell growth at 10 ug/ml incubated for 48 hrs by SRB staining based assay relative to control; format: functional; details: Homo sapiens, read-out: Activity
[3] = Anti-lymphangiogenic activity in HDLEC assessed as reduction in tube formation incubated for 8 hrs by matrigel tube formation based inverted phase contrast microscopic analysis; format: functional, Homo sapiens
Homo sapiens = organism: Homo sapiens; assay: Anti-lymphangiogenic activity in HDLEC assessed as reduction in tube formation at 50 ug/ml incubated for 8 hrs by matrigel tube formation based inverted phase contrast microscopic analysis; format: functional
[4] = Cytotoxicity against HDLEC at 50 ug/ml incubated for 24 hrs by LDH assay; details: human

Row | SMILES | growth at 50 µg/mL [1] | other results
1 | CC1=CC(=O)[C@@H]2[C@@H](C1)[C@]13C=C4N5C[C@H]6C[C@H](C)C[C@]5(CC[C@@]4(C)[C@]4(COC(=O)C4)[C@H]1[C@@](O)(OC3)[C@@H]2C)O6 | 88% | –
2 | C[C@H]1C[C@@H]2CN3C4=C[C@@]56CO[C@]7(C)CC(=O)[C@@H]([C@H]5C7)[C@@H](C)C(=O)[C@H]6[C@@]5(COC(=O)C5)[C@]4(C)CC[C@@]3(C1)O2 | 82% | –
3 | CC1=CC(=O)[C@@H]2[C@@H](C1)[C@]13CO[C@@]4([C@@H]1O)N1C[C@H]5C[C@H](C)C[C@]1(CC[C@@]4(C)[C@]1(COC(=O)C1)[C@H]3C(=O)[C@@H]2C)O5 | 81% | –
4 | CO[C@H]1C[C@@H]2CC[C@@H](C)[C@@](O)(O2)C(=O)C(=O)N2CCCC[C@H]2C(=O)O[C@H]([C@H](C)C[C@@H]2CC[C@@H](O)[C@H](OC)C2)CC(=O)[C@H](C)/C=C(\C)[C@@H](O)[C@@H](OC)C(=O)[C@H](C)C[C@H](C)/C=C/C=C/C=C/1C [SIROLIMUS] | – | growth at 10 µg/mL [2]: 17%; IC50 [3]: 57 µM
5 | C[C@H]1C[C@@H]2CN3C4=C[C@@]56CO[C@]7(C)CC(=O)[C@@H]([C@H]5C7)[C@@H](C)C(=O)[C@@H]6[C@@]5(COC(=O)C5)[C@]4(C)CC[C@@]3(C1)O2 | 85% | –
6 | CC1=CC(=O)[C@@H]2[C@@H](C1)[C@]1(C)C=C3N4C[C@@H]5O[C@@]4(CC[C@@]3(C)[C@]3(COC(=O)C3)[C@H]1C(=O)[C@@H]2C)C[C@@H](C)[C@H]5O | 85% | –
7 | COC(=O)CNCC1=CC(=O)[C@@H]2[C@@H](C1)[C@]13CO[C@@]4([C@@H]1O)N1C[C@H]5C[C@H](C)C[C@]1(CC[C@@]4(C)[C@]1(COC(=O)C1)[C@H]3C(=O)[C@@H]2C)O5 | 76% | –
8 | CC1=CC(=O)[C@@H]2[C@@H](C1)[C@]1(C)C=C3N4C[C@H]5C[C@H](C)C[C@]4(CC[C@@]3(C)[C@]3(COC(=O)C3)[C@H]1C(=O)[C@@H]2C)O5 | 91% | –
9 | C[C@H]1C[C@@H]2CN3[C@](CC[C@@]4(C)[C@]5(COC(=O)C5)[C@H]5C(=O)[C@H](C)[C@@H]6C(=O)C=C(CO)C[C@H]6[C@@]56CO[C@@]34[C@@H]6O)(C1)O2 | 66% | –
10 | CC1=CC(=O)[C@@H]2[C@@H](C1)[C@]13CO[C@@]4([C@@H]1O)N1C[C@H]5C[C@H](C)C[C@@]1(O5)[C@@H](O)C[C@@]4(C)[C@]1(COC(=O)C1)[C@H]3C(=O)[C@@H]2C | 100% | –
11 | CC1=CC(=O)[C@@H]2[C@@H](C1)[C@]13C=C4N5C[C@H]6C[C@H](C)C[C@@]5(O6)[C@@H](O)C[C@@]4(C)[C@]4(COC(=O)C4)[C@H]1[C@@](O)(OC3)[C@@H]2C | 83% | –
12 | C[C@H]1C[C@@H]2CN3C4=C[C@@]56CO[C@@](O)([C@H](C)[C@@H]7C(=O)C=C(CO)C[C@H]75)[C@@H]6[C@@]5(COC(=O)C5)[C@]4(C)CC[C@@]3(C1)O2 | 60% | inhibition (Homo sapiens): Active; IC50 [3]: 99 µM; Activity [4]: Non-Toxic
13 | CC1=CC(=O)[C@@H]2[C@@H]([C@@H]1O)[C@]1(C)C=C3N4C[C@H]5C[C@H](C)C[C@]4(CC[C@@]3(C)[C@]3(COC(=O)C3)[C@H]1C(=O)[C@@H]2C)O5 | 75% | –
14 | COC(=O)CNCC1=CC(=O)[C@@H]2[C@@H](C1)[C@]13C=C4N5C[C@H]6C[C@H](C)C[C@]5(CC[C@@]4(C)[C@]4(COC(=O)C4)[C@H]1[C@@](O)(OC3)[C@@H]2C)O6 | 38% | inhibition (Homo sapiens): Active; IC50 [3]: 68 µM; Activity [4]: Non-Toxic
15 | C[C@H]1C[C@@H]2CN3[C@H]4C(=O)[C@@]56CO[C@]7(C)CC(=O)[C@@H]([C@H]5C7)[C@@H](C)C(=O)[C@@H]6[C@@]5(COC(=O)C5)[C@]4(C)CC[C@@]3(C1)O2 | 86% | –
16 | CC1=CC(=O)[C@@H]2[C@@H](C1)[C@]13CO[C@@]4([C@@H]1O)N1C[C@@H]5O[C@@]1(CC[C@@]4(C)[C@]1(COC(=O)C1)[C@H]3C(=O)[C@@H]2C)C[C@@H](C)[C@H]5O | 98% | –
17 | CC1=CC(=O)[C@@H]2[C@@H](C1)[C@]13C=C4N5C[C@@H]6O[C@@]5(CC[C@@]4(C)[C@]4(COC(=O)C4)[C@H]1[C@@](O)(OC3)[C@@H]2C)C[C@@H](C)[C@H]6O | 101% | –
18 | C[C@H]1C[C@@H]2CN3C4=C[C@@]5(C)[C@@H]6CC(CO)=CC(=O)[C@H]6[C@@H](C)C(=O)[C@@H]5[C@@]5(COC(=O)C5)[C@]4(C)CC[C@@]3(C1)O2 | 56% | inhibition (Homo sapiens): Active; IC50 [3]: 98 µM; Activity [4]: Non-Toxic
